# Test results from US8324406B2, “Antitumoral dihydropyran-2-one compounds” (priority 2006, dated 2012).
# Like-named read-outs stand apart in the source and are kept apart here.
# What was measured:
# Test in all cases: cells
# Type in all cases: cell-based
# Details in all cases: Homo sapiens; for IC (TGI): read-out: TGI
# [1] = system: HT29
# From the text: (§1) The aim of this assay is to evaluate the in vitro cytostatic (ability to delay or arrest tumor cell growth) or cytotoxic (ability to kill tumor cells) activity of the samples being tested.
# (§2) Evaluation of Cytotoxic Activity Using the SBR Colorimetric Assay
# (§3) A colorimetric type of assay, using sulforhodamine B (SRB) reaction has been adapted for a quantitative measurement of cell growth and viability (following the technique described by Skehan P et al. J. Natl. Cancer Inst. 1990, 82, 1107-1112).
# (§4) This form of assay employs SBS-standard 96-well cell culture microplates (Faircloth et al. Methods in cell science, 1988, 11(4), 201-205; Mosmann et al, Journal of. Immunological. Methods, 1983, 65(1-2), 55-63). All the cell lines used in this study, derived from different types of human cancer, were obtained from the American Type Culture Collection (ATCC).
# (§5) Cells were maintained in Dulbecco's Modified Eagle Medium (DMEM) supplemented with 10% Fetal Bovine Serum (FBS), 2 mM L-glutamine, 100 U/mL penicillin and 100 U/mL streptomycin at 37° C., 5% CO2 and 98% humidity. For the experiments, cells were harvested from subconfluent cultures using trypsinization and resuspended in fresh medium before counting and plating.
# (§6) Cells were seeded in 96 well microtiter plates at 5×10^3 cells per well in aliquots of 150 μL, and allowed to attach to the plate surface for 18 hours in drug free medium. One control (untreated) plate of each cell line was fixed (as described below) and used for time zero reference value. Afterwards, test samples were added to the cultures in ten serial dilutions, in aliquots of 50 μL, ranging from 10 to 0.00262 μg/mL. After 48 hours exposure, the antitumor effect was estimated by the SRB method: Briefly, cells were washed twice with PBS, fixed for 15 min in 1% glutaraldehyde solution, rinsed twice in PBS, and stained in 0.4% SRB solution for 30 min at room temperature. Cells were then rinsed several times with 1% acetic acid solution and air-dried. SRB was then extracted in 10 mM trizma base solution and the absorbance measured in an automated spectrophotometric plate reader at 490 nm. Cell survival was expressed as percentage of control cell growth. The final effect of the sample being tested was estimated by applying the NCI algorithm (Boyd M R and Paull K D. Drug Dev. Res. 1995, 34, 91-104).
# (§7) Using the mean±SD of triplicate cultures, a dose-response curve was automatically generated using nonlinear regression analysis. Three reference parameters were calculated (NCI algorithm) by automatic interpolation: GI50=concentration that produces 50% growth inhibition; TGI=total growth inhibition (cytostatic effect) and LC50=concentration that produces 50% net cell killing (cytotoxic effect).
# [2] = system: MDA-MB-231
# From the text: as §1, §2, §3, §4, §5, §6, §7
# [3] = system: A549
# From the text: as §1, §2, §3, §4, §5, §6, §7
# [4] = HT-29, HT29, 48 hours exposure, SRB, 50% net cell killing (cytotoxic effect), read-out: LC50 (the source's name)
# [5] = HT-29, HT29, 48 hours exposure, SRB, concentration that produces 50% growth inhibition, read-out: GI50
# [6] = HT-29, HT29, 48 hours exposure, SRB, total growth inhibition (cytostatic effect)
# [7] = MDA-MB-231, 48 hours exposure, SRB, 50% net cell killing (cytotoxic effect), read-out: LC50 (the source's name)
# [8] = MDA-MB-231, 48 hours exposure, SRB, concentration that produces 50% growth inhibition, read-out: GI50
# [9] = MDA-MB-231, 48 hours exposure, SRB, total growth inhibition (cytostatic effect)
# [10] = A549, 48 hours exposure, SRB, 50% net cell killing (cytotoxic effect), read-out: LC50 (the source's name)
# [11] = A549, 48 hours exposure, SRB, concentration that produces 50% growth inhibition, read-out: GI50
# [12] = A549, 48 hours exposure, SRB, total growth inhibition (cytostatic effect)
# [13] = MDA-MB-231, 48 h, read-out: LC50
Structure (SMILES),"CC50 [1, 4]","GI50 [1, 5]","IC (TGI) [1, 6]","CC50 [2, 7]","GI50 [2, 8]","IC (TGI) [2, 9]","CC50 [3, 10]","GI50 [3, 11]","IC (TGI) [3, 12]","GI50 ([1]; HT-29, 48 h)","CC50 ([1]; HT-29, 48 h, read-out: LC50)","IC (TGI) ([1]; HT-29, 48 h)","GI50 ([2]; MDA-MB-231, 48 h)","CC50 [2, 13]","IC (TGI) ([2]; MDA-MB-231, 48 h)","GI50 ([3]; A549, 48 h)","CC50 ([3]; A549, 48 h, read-out: LC50)","IC (TGI) ([3]; A549, 48 h)"
COC1=CC[C@@H]([C@@H](C)/C=C(C)/C=C\C=C/C(=O)N[C@@H](C(N)=O)C(C)(C)C)OC1=O [(15R)-7],1310 nM,346 nM,593 nM,> 24700 nM,766 nM,2470 nM,> 24700 nM,1040 nM,3460 nM,,,,,,,,,
COC1=CC[C@@H]([C@@H](C)/C=C(C)/C=C\C=C/C(=O)N[C@H](C(=O)N/C=C\C[C@@H](C/C=C(\C)Cl)OC(N)=O)C(C)C)OC1=O [(21S)-5],3.88 nM,2.53 nM,2.87 nM,103 nM,4.56 nM,18.6 nM,> 1690 nM,6.92 nM,28.7 nM,,,,,,,,,
COC1=CC[C@@H]([C@@H](C)/C=C(C)/C=C\C=C/C(=O)N[C@H](C(=O)N/C=C\C[C@H](O)C/C=C(\C)Cl)C(C)(C)C)OC1=O [(21S)-30a],> 1630 nM,2.66 nM,3.02 nM,284 nM,2.49 nM,21.3 nM,> 1630 nM,3.73 nM,195 nM,,,,,,,,,
COC1=CC[C@@H]([C@@H](C)/C=C(C)/C=C/C=C/C(=O)N[C@H](C(=O)N/C=C\C[C@H](C/C=C(\C)Cl)OC(N)=O)C(C)(C)C)OC1=O [Compound 3],,,,,,,,,,0.445 nM,> 165 nM,0.759 nM,0.924 nM,9.57 nM,2.47 nM,1.02 nM,> 165 nM,4.29 nM
C/C=C\C[C@@H](C/C=C\NC(=O)[C@@H](NC(=O)\C=C/C=C\C(C)=C\[C@H](C)[C@@H]1CC=C(OC)C(=O)O1)C(C)(C)C)OC(N)=O [Compound 4],,< 0.431 nM,0.928 nM,,0.613 nM,1.49 nM,,0.595 nM,2.45 nM,,1.12 nM,,,8.23 nM,,,> 1640 nM,
COC1=CC[C@@H]([C@@H](C)/C=C(C)/C=C\C=C/C(=O)N[C@H](C(=O)N/C=C\C[C@H](C/C=C(\C)Cl)OC(N)=O)C(C)C)OC1=O [Compound 5],> 169 nM,0.0439 nM,0.128 nM,4.9 nM,0.103 nM,0.456 nM,> 169 nM,0.0608 nM,0.321 nM,,,,,,,,,
COC1=CCC(C(C)/C=C(C)/C=C/C=C\C(=O)NC(C(=O)N/C=C\CC(C/C=C(\C)Cl)OC(N)=O)C(C)C)OC1=O (stereo not drawn) [Compound 6],4.9 nM,0.591 nM,1.01 nM,15.5 nM,0.49 nM,3.21 nM,> 1640 nM,0.76 nM,> 1640 nM,,,,,,,,,
COC1=CC[C@@H]([C@@H](C)/C=C(C)/C=C\C=C/C(=O)N[C@H](C(N)=O)C(C)(C)C)OC1=O [Compound 7],816 nM,420 nM,544 nM,2450 nM,420 nM,841 nM,> 2470 nM,618 nM,1190 nM,,,,,,,,,
COC1=CC[C@@H]([C@@H](C)/C=C(C)/C=C\C=C\C(=O)N[C@H](C(=O)N/C=C\C[C@H](C/C=C(\C)Cl)OC(N)=O)C(C)(C)C)OC1=O [Compound 8],,,,,,,,,,2.14 nM,6.27 nM,3.13 nM,3.46 nM,41.2 nM,10.1 nM,3.63 nM,> 1650 nM,13 nM
